Data: patent publication US12161726B2, “Biomimetic vesicles and uses thereof” (Ohio State Innovation Foundation, priority 2018, dated 2024)

Experiments:
[1] = system: neointimal hyperplasia (IH) in balloon-injured carotid arteries; test: Morphometric analysis of neointima after carotid artery balloon angioplasty; format: in vivo, rat; settings: two i.v. injections (day 0 and 4), 14 days after angioplasty
Description: Materials and Methods: Rat carotid artery balloon angioplasty. Carotid artery balloon angioplasty was performed in male Sprague-Dawley rats (Charles River; about 400 g) as previously described (5, 20). Briefly, rats were anesthetized with isoflurane (5% for inducing and 2.5% for maintaining anesthesia). A longitudinal incision was made in the neck and carotid arteries were exposed. A 2-F balloon catheter (Edwards Lifesciences, Irvine, CA) was inserted through an arteriotomy on the left external carotid artery. To produce arterial injury, the balloon was inflated at a pressure of 2 atm and withdrawn to the carotid bifurcation and this action was repeated three times. The external carotid artery was then permanently ligated, and blood flow was resumed. Drug-loaded biomimetic nanoclusters or compound solutions were injected via rat tail vein. […]
Materials and Methods: Morphometric analysis of neointima. […] Planimetric parameters as follows were measured on the sections and calculated using Image J: area inside external elastic lamina (EEL area), area inside internal elastic lamina (IEL area), lumen area, intima area (=IEL area−lumen area), and media area (=EEL area−IEL area). Intimal hyperplasia was quantified as a ratio of intima area versus media area. […] The means from all the animals in each treatment group were then averaged, and the standard error of the mean (SEM) was calculated. […]

[2] = Drug loading level (HPLC / UV-Vis); format: physicochemical; settings: drug loaded into nanoclusters
Description: (d). Characterizations. 1H NMR spectra of all polymer products were recorded on a Varian Mercury Plus 300 spectrometer in DMSO-d6 or CDCl3 at 25° C. Molecular weights (Mn and Mw) and polydispersity indices (PDI) of the polymers were determined by a gel permeation chrornatographer (GPC) equipped with a refractive index detector, a viscometer detector, and a light scattering detector (Viscotek, USA), DMF with 0.01 M of LiBr was used as the mobile phase with. Fourier transform infrared (FT-IR) spectra were recorded on a Bruker Tensor 27 FT-IR spectrometer. The sizes and morphologies of the NPs were studied by dynamic light scattering (DLS, ZetaSizer Nano ZS90, Malvern Instruments, USA) and transmission electron microscopy (TEM, FEI Tecnai G2 F30 TWIN 300 KV, E.A, Fischione Instruments, Inc. USA). The zeta potentials were measured by ZetaSizer Nano ZS90 (Malvern Instruments, USA). The rapamycin loading level was measured by high-performance liquid chromatography (HPLC) using ultraviolet (UV) detection at 278 nm. The JQ1 loading level was measured by UV-Vis spectrometer at 323 nm.

[3] = In vitro drug release in PBS (dialysis bag); format: physicochemical; settings: from drug-loaded biomimetic nanoclusters, PBS pH 7.4, 37° C
Description: The in vitro drug release profiles from both rapamycin-loaded and JQ1-loaded biomimetic nanoclusters were studied in PBS (pH=7.4) (19). Briefly, drug-loaded biomimetic nanoclusters in the PBS (1 mg/mL, 5 mL) were enclosed in a cellulose membrane dialysis bag (molecular weight cut-off, 8 kDa). The dialysis bags were immersed in 100 mL of PBS, which was then kept in a horizontal laboratory shaker (100 rpm) at 37° C. At predetermined time intervals, 5 mL samples were collected and replaced with the same volume of PBS. The amounts of rapamycin and JQ1 in the collected samples were measured by HPLC and UV-Vis spectrometer, respectively, as indicated above.

[4] = system: pro-inflammatory activation of ECs and monocyte recruiting; settings: hypercholesterolemic murine model of atherosclerosis; cited from earlier work
[5] = system: restenosis; settings: rat model, earlier study (ref 5); cited from earlier work
[6] = system: human umbilical vein ECs; settings: cited from earlier work

Compound: Cc1sc2c(c1C)C(c1ccc(Cl)cc1)=N[C@@H](CC(=O)OC(C)(C)C)c1nnc(C)n1-2 [JQ1]
- Effect on IH (I/M ratio) [1]: failed to mitigate IH
- Drug loading level [2]: 21.5%
- In vitro drug release profile [3]: released in a sustainable manner without a burst release
- Pro-inflammatory activation of ECs and monocyte recruiting in vivo [4]: inhibitory effects
- Inhibition of restenosis [5]: effective inhibitor of restenosis
- TNFα-induced pathogenic EC activation (E-selectin, VCAM1, NF-κB translocation) [6]: inhibits TNFα-induced pathogenic EC activation
